Structures can show the parent of a compound that is named as a salt. Where two headings read alike, the source gives them in different places.
Legend:
hNav1.7 = biological target: T1, hNav1.7 (Homo sapiens, UniProt Q15858); test: Tritiated compound binding (LBA) to membranes from cells expressing hNav1.7 and the β1 subunit, competitive binding; conditions: competitive binding vs 100 pM [3H]compound, 18 h, room temperature, membranes with hNav1.7 and β1 subunit
T1 construct: expressed in transfected cells
T1 sequence (Q15858 1-1977 isoform Q15858-3): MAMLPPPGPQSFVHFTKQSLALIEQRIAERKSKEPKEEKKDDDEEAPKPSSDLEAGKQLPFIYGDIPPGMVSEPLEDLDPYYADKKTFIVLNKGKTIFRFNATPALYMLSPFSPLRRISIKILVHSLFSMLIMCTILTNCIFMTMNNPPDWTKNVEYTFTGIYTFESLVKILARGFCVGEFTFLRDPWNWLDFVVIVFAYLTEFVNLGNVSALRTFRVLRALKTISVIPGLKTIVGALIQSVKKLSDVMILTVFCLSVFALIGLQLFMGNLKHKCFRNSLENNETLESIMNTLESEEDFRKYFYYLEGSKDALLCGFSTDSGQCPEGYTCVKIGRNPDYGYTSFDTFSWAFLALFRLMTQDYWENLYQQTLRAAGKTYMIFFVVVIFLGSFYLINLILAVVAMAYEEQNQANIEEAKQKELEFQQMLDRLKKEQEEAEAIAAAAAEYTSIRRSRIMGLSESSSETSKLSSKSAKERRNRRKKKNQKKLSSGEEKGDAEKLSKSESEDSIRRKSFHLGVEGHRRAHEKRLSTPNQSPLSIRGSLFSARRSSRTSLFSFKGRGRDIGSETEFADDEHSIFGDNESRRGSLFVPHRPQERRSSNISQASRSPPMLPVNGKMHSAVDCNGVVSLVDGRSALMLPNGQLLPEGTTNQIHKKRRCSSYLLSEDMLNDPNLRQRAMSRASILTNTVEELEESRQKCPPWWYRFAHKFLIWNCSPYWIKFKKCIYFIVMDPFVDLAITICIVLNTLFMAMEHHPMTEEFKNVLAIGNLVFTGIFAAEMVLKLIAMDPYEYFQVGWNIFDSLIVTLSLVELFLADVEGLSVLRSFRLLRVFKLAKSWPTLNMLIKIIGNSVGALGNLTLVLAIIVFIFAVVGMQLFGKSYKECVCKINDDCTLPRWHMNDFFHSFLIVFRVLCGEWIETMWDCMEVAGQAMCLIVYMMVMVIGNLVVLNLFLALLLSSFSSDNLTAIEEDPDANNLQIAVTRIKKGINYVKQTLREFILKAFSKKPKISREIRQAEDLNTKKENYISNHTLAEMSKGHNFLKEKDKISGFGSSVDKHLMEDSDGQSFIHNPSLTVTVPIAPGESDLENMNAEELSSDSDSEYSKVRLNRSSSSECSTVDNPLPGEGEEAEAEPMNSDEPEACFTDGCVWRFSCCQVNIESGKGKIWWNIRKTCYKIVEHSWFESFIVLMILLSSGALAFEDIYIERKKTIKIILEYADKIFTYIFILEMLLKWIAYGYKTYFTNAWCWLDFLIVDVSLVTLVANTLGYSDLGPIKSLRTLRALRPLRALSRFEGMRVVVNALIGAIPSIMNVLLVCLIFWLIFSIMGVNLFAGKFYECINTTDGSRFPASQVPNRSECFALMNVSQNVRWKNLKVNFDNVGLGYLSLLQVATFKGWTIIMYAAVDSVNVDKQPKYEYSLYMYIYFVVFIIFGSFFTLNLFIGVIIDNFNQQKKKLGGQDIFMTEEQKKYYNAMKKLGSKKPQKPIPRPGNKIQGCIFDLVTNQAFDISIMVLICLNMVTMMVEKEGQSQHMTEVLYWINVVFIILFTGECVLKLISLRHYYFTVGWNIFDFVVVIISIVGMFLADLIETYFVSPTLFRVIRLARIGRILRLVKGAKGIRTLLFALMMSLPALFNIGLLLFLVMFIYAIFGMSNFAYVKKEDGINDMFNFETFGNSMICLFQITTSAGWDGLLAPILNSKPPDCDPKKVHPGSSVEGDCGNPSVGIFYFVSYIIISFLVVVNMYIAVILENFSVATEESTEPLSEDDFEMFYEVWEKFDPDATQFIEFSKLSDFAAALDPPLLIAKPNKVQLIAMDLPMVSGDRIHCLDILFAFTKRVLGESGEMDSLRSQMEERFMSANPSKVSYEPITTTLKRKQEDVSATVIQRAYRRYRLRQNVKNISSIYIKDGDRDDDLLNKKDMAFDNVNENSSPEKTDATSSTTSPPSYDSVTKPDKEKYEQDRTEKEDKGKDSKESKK
T1 sequence (Q07699 19-218 partner): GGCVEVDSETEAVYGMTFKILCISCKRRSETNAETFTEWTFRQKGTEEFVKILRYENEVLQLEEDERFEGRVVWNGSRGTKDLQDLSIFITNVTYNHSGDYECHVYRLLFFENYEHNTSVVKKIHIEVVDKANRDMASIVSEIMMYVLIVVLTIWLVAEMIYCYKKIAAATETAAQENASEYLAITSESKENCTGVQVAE
Summary of the method: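 Competitive displacement of 100 pM [3H]compound (tritiated methyl analogue of formula (I)) from hNav1.7/β1 membranes, 18 h at room temperature in NaCl/Tris pH 7.4 buffer containing 0.01% BSA. 1 μM unlabeled compound set non-specific binding. Bound label quantified by scintillation after filtration; 4-parameter fit gave IC50.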

human NaV1.7 = biological target: T2, human NaV1.7 (Homo sapiens, UniProt Q15858); test: Patch voltage clamp electrophysiology assay (EP), NaV1.7; assay type: cell-based; conditions: HEK-293 cells stably expressing NaV1.7 with β1 subunit; whole-cell patch clamp, membrane potential −60 mV (inactivated state)
T2 construct: permanently transfected with an expression vector containing the full-length cDNA coding for the desired human sodium channel α-subunit; expressed in transfected cells; host or cells: HEK-293
T2 sequence (Q15858 1-1977 isoform Q15858-3): as the sequence (Q15858 1-1977 isoform Q15858-3) above
T2 sequence (Q07699 19-218 partner): as the sequence (Q07699 19-218 partner) above
Summary of the method: (§1)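 Percent block is the drop in sodium current after compound wash-on, measured by a test pulse following 20 ms at −150 mV from a −60 mV inactivating holding potential.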

NaV1.5 = biological target: T3, NaV1.5 (Homo sapiens, UniProt Q14524); test: Patch voltage clamp electrophysiology assay (EP), NaV1.5; assay type: cell-based
T3 construct: permanently transfected with an expression vector containing the full-length cDNA coding for the desired human sodium channel α-subunit; expressed in transfected cells; host or cells: HEK-293
T3 sequence (Q14524 whole entry): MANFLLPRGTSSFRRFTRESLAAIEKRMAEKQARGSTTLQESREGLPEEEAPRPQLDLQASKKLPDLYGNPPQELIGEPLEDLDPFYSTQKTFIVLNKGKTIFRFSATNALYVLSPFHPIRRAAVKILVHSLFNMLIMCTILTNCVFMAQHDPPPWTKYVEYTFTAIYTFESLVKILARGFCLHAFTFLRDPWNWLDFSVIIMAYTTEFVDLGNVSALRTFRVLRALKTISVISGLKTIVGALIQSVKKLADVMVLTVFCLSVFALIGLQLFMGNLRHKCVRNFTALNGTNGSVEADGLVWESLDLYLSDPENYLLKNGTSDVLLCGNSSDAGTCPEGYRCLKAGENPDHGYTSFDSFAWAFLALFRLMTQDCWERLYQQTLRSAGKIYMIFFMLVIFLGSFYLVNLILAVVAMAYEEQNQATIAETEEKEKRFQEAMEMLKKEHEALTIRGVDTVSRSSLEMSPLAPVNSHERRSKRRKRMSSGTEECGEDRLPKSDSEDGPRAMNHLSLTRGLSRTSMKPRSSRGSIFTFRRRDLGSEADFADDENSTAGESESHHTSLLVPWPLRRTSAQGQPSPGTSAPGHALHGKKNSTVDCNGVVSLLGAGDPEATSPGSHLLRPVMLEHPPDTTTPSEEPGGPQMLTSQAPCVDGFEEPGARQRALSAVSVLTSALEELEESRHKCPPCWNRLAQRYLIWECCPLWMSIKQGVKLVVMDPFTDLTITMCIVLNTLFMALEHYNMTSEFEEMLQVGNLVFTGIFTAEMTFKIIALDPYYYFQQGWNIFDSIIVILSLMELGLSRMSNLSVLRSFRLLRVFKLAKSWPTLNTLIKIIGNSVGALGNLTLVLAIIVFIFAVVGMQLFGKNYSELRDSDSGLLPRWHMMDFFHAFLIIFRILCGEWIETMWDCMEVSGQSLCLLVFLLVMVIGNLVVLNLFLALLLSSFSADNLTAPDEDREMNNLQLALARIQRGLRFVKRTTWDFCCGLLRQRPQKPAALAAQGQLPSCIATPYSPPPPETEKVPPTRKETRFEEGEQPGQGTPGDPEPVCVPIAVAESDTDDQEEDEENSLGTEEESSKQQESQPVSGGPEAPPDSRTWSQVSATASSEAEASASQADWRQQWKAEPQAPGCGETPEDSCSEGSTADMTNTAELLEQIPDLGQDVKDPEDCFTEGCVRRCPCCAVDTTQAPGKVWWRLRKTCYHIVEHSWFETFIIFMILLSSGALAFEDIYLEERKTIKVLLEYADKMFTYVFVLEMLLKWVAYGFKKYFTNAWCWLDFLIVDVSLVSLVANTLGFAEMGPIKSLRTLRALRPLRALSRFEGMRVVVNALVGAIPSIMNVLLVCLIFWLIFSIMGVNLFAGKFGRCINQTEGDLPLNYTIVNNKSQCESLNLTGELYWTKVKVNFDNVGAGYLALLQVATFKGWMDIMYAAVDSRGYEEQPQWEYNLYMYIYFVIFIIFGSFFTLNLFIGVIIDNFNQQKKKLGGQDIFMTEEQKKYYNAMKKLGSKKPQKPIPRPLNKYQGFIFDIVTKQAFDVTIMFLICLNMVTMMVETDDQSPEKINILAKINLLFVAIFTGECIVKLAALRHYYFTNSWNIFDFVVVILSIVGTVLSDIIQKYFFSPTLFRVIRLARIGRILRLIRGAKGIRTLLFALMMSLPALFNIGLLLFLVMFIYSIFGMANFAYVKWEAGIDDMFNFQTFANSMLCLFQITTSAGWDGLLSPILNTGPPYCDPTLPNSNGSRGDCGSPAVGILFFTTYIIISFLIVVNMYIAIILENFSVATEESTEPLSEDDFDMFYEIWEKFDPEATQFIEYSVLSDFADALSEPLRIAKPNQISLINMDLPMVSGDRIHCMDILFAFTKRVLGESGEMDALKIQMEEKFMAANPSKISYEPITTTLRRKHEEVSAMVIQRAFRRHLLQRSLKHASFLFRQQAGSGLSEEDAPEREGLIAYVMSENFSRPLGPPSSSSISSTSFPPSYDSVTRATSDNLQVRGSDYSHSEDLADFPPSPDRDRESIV
Summary of the method: as §1

[1] = HEK-293 cells stably expressing NaV1.5 with β1 subunit, whole-cell patch clamp, membrane potential −60 mV (inactivated state), read-out: Nav1.5
[2] = human, HEK-293 cells stably expressing human NaV1.5 with β1 subunit, pH 7.4, HEK-293 cells stably expressing NaV1.5 with β1 subunit, whole-cell patch clamp, membrane potential −60 mV (inactivated state)

SMILES | IC50 (hNav1.7) [µM] | IC50 (human NaV1.7) [µM] | IC50 (NaV1.5; [1]) [µM] | IC50 (NaV1.5; [2]) [µM] | IC50 (NaV1.5) [µM]
Cc1nn(C2CCN(c3ccc(Cl)c(C(F)(F)F)n3)CC2)c2cc(F)c(C(=O)N3CCC[C@H]3C(=O)O)cc12 [Example 195, (S)-1-(1-(1-(5-chloro-6-(trifluoromethyl)pyridin-2-yl)piperidin-4-yl)-6-fluoro-3-methyl-1H-indazole-5-carbonyl)pyrrolidine-2-carboxylic acid trifluoroacetate] | 1.9 | 5.9 | – | ≥ 30 | –
O=C(O)[C@@H]1CCC(=O)N1C(=O)c1cc(C2CC2)c(OCC23CC4CC(CC(C4)C2)C3)cc1F [Example 198, (S)-1-(4-(adamantan-1-ylmethoxy)-5-cyclopropyl-2-fluorobenzoyl)-5-oxopyrrolidine-2-carboxylic acid] | 1.1 | 4.5 | 18 | – | –
O=C(NO)[C@@H]1C[C@@H](F)CN1C(=O)c1cc(C2CC2)c(OCC23CC4CC(CC(C4)C2)C3)cc1F [Example 199, 1-(4-(adamantan-1-ylmethoxy)-5-cyclopropyl-2-fluorobenzoyl)-4-fluoro-N-hydroxypyrrolidine-2-carboxamide] | 0.47 | 3.6 | 15 | – | –
O=C(O)[C@@H]1CC2(CC2)CN1C(=O)c1cc(C2CC2)c(OCC23CC4CC(CC(C4)C2)C3)cc1F [Example 200, (S)-5-(4-(adamantan-1-ylmethoxy)-5-cyclopropyl-2-fluorobenzoyl)-5-azaspiro[2.4]heptane-6-carboxylic acid] | 0.084 | 0.79 | – | – | 12
O=C(c1cc(C2CC2)c(OCC23CC4CC(CC(C4)C2)C3)cc1F)N1C[C@H](F)C[C@H]1C(O)(C(F)(F)F)C(F)(F)F [Example 201, (4-(adamantan-1-ylmethoxy)-5-cyclopropyl-2-fluorophenyl)((2S,4R)-4-fluoro-2-(1,1,1,3,3,3-hexafluoro-2-hydroxypropan-2-yl)pyrrolidin-1-yl)methanone] | ≥ 10 | 13 | 24 | – | –
CC1(C)[C@@H]2[C@@H](C(=O)O)N(C(=O)c3cc(C4CC4)c(OCC45CC6CC(CC(C6)C4)C5)cc3F)C[C@@H]21 [Example 202, (1R,2S,5S)-3-(4-(adamantan-1-ylmethoxy)-5-cyclopropyl-2-fluorobenzoyl)-6,6-dimethyl-3-azabicyclo[3.1.0]hexane-2-carboxylic acid] | 1.9 | 4.4 | 16 | – | –

Now from value to molecule, other results behind:

IC50 (hNav1.7) [µM] | IC50 (human NaV1.7) [µM] | SMILES | IC50 (NaV1.5; [1]) [µM] | IC50 (NaV1.5; [2]) [µM] | IC50 (NaV1.5) [µM]
0.02 | 0.99 | O=C(O)[C@@H]1CCCN1C(=O)c1cc(C2CC2)c(OCC2CCN(C(c3ccccc3)c3cc(Cl)cc(Cl)c3)CC2)cc1F (stereo partly drawn) [Example 193, (2S)-1-(5-Cyclopropyl-4-((1-((3,5-dichlorophenyl)(phenyl)methyl)piperidin-4-yl)methoxy)-2-fluorobenzoyl)pyrrolidine-2-carboxylic acid trifluoroacetate] | 7.6 | – | –
0.022 | 0.64 | O=C(O)[C@@H]1CCCN1C(=O)c1cc(C2CCC2)c(OCC23CC4CC(CC(C4)C2)C3)cc1F [Example 194, (S)-1-(4-(adamantan-1-ylmethoxy)-5-cyclobutyl-2-fluorobenzoyl)pyrrolidine-2-carboxylic acid trifluoroacetate] | 10 | – | –
0.018 | 1.4 | CC1(COc2cc(F)c(C(=O)N3CCC[C@H]3C(=O)O)cc2C2CC2)CN(C(c2ccccc2)c2cc(Cl)cc(Cl)c2)C1 (stereo partly drawn) [Example 196, (2S)-1-(5-cyclopropyl-4-((1-((3,5-dichlorophenyl)(phenyl)methyl)-3-methylazetidin-3-yl)methoxy)-2-fluorobenzoyl)pyrrolidine-2-carboxylic acid trifluoroacetate] | 13 | – | –
0.63 | 3.9 | O=C(O)[C@@H]1CCCN1C(=O)c1cc(C2CC2)c(OCC2CCN(Cc3nc(-c4ccccc4Cl)no3)CC2)cc1F [Example 197, (S)-1-(4-((1-((3-(2-chlorophenyl)-1,2,4-oxadiazol-5-yl)methyl)piperidin-4-yl)methoxy)-5-cyclopropyl-2-fluorobenzoyl)pyrrolidine-2-carboxylic acid trifluoroacetate] | – | ≥ 30 | –

From patent publication US10125098B2, “Therapeutic compounds and methods of use thereof” (GENENTECH, INC., priority 2014, dated 2018)
